Experimental data taken from ChEMBL document CHEMBL1148572, “1-((S)-2-aminopropyl)-1H-indazol-6-ol: a potent peripherally acting 5-HT2 receptor agonist with ocular hypotensive activity” (J Med Chem, 2006).
pEC50, pIC50, pKi: −log10 of the molar value.

Assays:
[1] = Distribution coefficient at pH 7.4; format: physicochemical; settings: octanol/water
[2] = biological target: T1, 5-hydroxytryptamine receptor 2A (Rattus norvegicus, UniProt P14842); format: tissue-based, Cerebral cortex
[3] = biological target: 5-hydroxytryptamine receptor 2A (Rattus norvegicus) (UniProt P14842); assay: (§1) Activity against 5HT2A mediated intracellular calcium mobilization by FLIPR in rat vascular smooth muscle cells; format: functional, cell-based
Chain of 5-hydroxytryptamine receptor 2A (Rattus norvegicus) (P14842 whole entry): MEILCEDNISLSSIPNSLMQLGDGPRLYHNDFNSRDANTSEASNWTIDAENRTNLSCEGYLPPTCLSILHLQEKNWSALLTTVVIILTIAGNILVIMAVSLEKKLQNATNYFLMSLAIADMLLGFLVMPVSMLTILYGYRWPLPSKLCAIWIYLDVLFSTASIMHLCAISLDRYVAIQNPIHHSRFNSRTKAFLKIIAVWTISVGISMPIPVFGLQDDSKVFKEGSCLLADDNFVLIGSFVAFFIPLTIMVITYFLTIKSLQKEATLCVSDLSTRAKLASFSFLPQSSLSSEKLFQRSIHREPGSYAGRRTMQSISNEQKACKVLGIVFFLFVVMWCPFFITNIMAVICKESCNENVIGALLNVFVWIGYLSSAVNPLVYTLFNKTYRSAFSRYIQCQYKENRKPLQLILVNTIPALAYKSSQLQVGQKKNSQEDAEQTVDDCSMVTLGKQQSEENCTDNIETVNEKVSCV

[4] = biological target: T1, 5-hydroxytryptamine receptor 2A; assay: as §1; format: functional, cell-based
[5] = biological target: T2, 5-hydroxytryptamine receptor 2C (Rattus norvegicus) (UniProt P08909); assay: Activity against recombinant rat 5HT2C mediated intracellular calcium mobilization by FLIPR in SR3T3 cells
T2 sequence (whole entry): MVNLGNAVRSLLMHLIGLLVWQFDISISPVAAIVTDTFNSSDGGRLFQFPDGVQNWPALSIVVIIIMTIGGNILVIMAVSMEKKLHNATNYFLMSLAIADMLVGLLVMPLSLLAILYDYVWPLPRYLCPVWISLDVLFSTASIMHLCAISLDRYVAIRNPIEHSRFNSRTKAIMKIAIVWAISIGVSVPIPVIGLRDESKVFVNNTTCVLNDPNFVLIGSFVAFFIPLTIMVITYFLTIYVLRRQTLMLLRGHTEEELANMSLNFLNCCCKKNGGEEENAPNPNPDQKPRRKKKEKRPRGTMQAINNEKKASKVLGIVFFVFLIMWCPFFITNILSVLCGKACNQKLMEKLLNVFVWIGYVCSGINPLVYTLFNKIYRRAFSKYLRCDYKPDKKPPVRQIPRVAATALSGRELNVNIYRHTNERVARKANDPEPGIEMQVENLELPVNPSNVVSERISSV

MDR1 (P-gp) [6] = assay: Permeability from basolateral to apical side of the MDCK cell transfected with human MDR1; format: ADME, cell-based
MDR1 (P-gp) [7] = assay: Permeability from apical to basolateral side of the MDCK cell transfected with human MDR1; format: ADME, cell-based
[8] = biological target: 5-hydroxytryptamine receptor 2A (Homo sapiens, UniProt P28223); format: cell-based, CHO
Chain of 5-hydroxytryptamine receptor 2A (Homo sapiens, UniProt P28223) (P28223 whole entry): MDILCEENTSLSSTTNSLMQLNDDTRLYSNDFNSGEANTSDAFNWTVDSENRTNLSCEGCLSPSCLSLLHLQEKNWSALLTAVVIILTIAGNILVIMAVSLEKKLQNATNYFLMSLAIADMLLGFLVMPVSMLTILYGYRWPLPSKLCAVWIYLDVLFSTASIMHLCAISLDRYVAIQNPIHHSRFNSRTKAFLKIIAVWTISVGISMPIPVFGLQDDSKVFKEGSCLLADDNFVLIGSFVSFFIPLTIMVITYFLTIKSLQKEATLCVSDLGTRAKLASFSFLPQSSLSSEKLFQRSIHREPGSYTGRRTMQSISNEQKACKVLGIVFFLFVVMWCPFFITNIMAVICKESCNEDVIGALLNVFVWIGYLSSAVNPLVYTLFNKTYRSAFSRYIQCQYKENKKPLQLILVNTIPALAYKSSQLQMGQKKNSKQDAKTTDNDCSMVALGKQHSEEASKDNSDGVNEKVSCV

[9] = biological target: 5-hydroxytryptamine receptor 2B (Rattus norvegicus, UniProt P30994); assay: Activity against 5HT2B receptor in longitudinal stomach fundus strips in wistar rats
Chain of 5-hydroxytryptamine receptor 2B (Rattus norvegicus, UniProt P30994) (P30994 whole entry): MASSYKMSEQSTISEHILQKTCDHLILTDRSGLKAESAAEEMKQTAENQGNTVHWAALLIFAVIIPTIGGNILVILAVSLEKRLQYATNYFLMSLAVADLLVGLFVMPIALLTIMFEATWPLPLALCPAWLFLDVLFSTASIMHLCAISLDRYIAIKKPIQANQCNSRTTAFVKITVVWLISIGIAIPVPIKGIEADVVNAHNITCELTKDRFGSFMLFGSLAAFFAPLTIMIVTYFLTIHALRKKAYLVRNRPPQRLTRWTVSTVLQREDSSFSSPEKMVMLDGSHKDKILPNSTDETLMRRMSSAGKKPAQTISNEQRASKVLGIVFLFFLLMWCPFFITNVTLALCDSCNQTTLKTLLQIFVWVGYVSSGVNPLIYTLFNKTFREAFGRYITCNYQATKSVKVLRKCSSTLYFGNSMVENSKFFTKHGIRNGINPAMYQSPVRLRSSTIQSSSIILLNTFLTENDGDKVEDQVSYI

[10] = biological target: T3, 5-hydroxytryptamine receptor 2C (Homo sapiens, UniProt P28335); assay: biochemical
T3 sequence (P28335 whole entry): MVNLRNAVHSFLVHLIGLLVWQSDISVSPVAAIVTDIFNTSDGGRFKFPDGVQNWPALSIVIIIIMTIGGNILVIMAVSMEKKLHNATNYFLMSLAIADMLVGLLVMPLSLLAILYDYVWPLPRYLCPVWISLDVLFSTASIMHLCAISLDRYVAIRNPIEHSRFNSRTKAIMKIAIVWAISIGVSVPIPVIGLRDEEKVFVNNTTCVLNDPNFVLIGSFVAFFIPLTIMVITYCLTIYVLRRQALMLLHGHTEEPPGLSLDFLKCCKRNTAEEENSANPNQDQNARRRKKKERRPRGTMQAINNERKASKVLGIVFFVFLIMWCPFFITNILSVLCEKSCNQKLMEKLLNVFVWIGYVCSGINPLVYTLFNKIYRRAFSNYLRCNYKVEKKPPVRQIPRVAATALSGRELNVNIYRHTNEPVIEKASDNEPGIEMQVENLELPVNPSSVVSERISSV
Description: Displacement of [125I]DOI from cloned human 5HT2C receptor expressed in CHO cells

[11] = biological target: T4, 5-hydroxytryptamine receptor 2C (Rattus norvegicus, UniProt P08909); assay: Activity against recombinant rat 5HT2C mediated intracellular calcium mobilization by FLIPR in SR3T3 cells
T4 sequence (P08909 whole entry): T2 sequence (whole entry)

[12] = biological target: 5-hydroxytryptamine receptor 2B (Homo sapiens, UniProt P41595); assay: biochemical
Chain of 5-hydroxytryptamine receptor 2B (Homo sapiens, UniProt P41595) (P41595 whole entry): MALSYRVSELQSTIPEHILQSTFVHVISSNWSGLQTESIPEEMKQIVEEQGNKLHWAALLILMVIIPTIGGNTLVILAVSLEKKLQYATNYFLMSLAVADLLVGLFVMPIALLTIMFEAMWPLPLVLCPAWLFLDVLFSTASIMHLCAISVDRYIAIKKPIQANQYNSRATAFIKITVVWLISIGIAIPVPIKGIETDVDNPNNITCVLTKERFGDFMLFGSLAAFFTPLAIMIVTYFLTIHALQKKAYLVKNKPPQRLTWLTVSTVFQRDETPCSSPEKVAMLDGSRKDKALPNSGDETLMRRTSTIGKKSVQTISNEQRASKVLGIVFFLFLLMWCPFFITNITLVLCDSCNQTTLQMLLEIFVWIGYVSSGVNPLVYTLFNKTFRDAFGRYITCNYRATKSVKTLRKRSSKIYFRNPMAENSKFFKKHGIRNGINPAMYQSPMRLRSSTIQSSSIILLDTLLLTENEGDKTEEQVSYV
Description: Displacement of [125I]DOI from cloned human 5HT2B receptor expressed in CHO cells

[13] = Half life in phosphate buffer at pH 7.4 in 25 degC; format: ADME
MDR1 (P-gp) [14] = assay: in vitro; settings: human, MDCK-MDR1
Description: Ratio of permeability from basolateral to apical over apical to basolateral side of the MDCK cell transfected with human MDR1

[15] = biological target: T5, Alpha-2A adrenergic receptor (Homo sapiens, UniProt P08913); assay: Activity at adrenergic alpha-2A receptor expressed in human clonic adenocarcinoma HT29 cell by adenylyl cyclase assay; format: functional, cell-based, HT-29
T5 sequence (P08913 whole entry): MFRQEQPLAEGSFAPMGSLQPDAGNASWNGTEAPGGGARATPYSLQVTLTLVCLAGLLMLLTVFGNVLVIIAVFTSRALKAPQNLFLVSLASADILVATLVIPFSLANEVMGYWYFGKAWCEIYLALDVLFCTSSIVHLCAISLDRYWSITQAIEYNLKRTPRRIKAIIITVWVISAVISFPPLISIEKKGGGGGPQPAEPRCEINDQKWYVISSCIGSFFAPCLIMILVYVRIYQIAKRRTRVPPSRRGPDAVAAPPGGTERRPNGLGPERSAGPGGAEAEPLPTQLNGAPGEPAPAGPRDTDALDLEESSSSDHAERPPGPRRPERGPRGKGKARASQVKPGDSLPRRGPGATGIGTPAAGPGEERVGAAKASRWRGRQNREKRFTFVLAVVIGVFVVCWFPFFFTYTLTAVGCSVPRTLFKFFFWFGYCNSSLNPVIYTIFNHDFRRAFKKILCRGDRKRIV

[16] = biological target: Alpha-2B adrenergic receptor (Homo sapiens, UniProt P18089); assay: Activity at adrenergic alpha-2B receptor expressed in opposum kidney OK cell by adenylyl cyclase assay; format: functional, cell-based
Chain of Alpha-2B adrenergic receptor (P18089 whole entry): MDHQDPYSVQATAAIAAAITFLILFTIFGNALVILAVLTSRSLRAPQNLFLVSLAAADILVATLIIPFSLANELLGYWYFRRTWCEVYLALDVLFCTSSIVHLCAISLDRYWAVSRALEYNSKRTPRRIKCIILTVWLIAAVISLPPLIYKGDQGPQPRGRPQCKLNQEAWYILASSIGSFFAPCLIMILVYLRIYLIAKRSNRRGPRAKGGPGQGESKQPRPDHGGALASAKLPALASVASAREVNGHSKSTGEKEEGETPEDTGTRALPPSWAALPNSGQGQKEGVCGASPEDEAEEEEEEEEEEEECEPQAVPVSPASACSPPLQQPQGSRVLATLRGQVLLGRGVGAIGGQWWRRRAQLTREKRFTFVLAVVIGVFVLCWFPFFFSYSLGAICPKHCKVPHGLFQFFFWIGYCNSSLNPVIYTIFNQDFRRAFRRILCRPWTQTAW

[17] = biological target: 5-hydroxytryptamine receptor 7 (Homo sapiens, UniProt P34969); assay: Activity at 5HT7 receptor expressed in human corneal epithelial CEPI-17-CL4 cells by adenylyl cyclase assay; format: functional, cell-based, Cornea
Chain of 5-hydroxytryptamine receptor 7 (P34969 whole entry): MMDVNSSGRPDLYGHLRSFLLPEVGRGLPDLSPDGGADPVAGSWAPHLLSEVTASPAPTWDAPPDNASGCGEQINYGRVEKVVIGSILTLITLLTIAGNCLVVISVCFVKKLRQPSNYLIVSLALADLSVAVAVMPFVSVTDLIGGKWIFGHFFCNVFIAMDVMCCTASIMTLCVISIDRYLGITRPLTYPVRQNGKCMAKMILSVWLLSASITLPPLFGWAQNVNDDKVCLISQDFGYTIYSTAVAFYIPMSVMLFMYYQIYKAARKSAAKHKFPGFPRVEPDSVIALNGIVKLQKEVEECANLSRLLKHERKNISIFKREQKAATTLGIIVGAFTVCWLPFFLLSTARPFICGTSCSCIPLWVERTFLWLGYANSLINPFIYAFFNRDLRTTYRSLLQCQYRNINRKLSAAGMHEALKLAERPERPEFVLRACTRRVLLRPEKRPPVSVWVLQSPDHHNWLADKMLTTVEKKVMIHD

[18] = biological target: T6, 5-hydroxytryptamine receptor 1A (Homo sapiens, UniProt P08908); assay: Agonistic activity at cloned human 5HT1A receptor expressed in CHO cells by inhibition of forskolin-induced cAMP production; format: functional, cell-based
T6 sequence (P08908 whole entry): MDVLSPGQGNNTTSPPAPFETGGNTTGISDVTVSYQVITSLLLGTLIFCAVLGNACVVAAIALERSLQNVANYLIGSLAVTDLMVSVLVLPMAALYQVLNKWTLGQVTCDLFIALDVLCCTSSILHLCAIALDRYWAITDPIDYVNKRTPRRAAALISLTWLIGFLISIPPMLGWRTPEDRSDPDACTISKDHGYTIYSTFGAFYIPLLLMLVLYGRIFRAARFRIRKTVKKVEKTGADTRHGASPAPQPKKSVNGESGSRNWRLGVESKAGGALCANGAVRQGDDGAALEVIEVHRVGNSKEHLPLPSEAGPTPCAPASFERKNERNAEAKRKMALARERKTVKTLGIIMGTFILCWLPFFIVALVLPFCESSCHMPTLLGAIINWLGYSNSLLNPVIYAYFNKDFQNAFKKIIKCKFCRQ

[19] = biological target: T7, Alpha-2C adrenergic receptor (Homo sapiens, UniProt P18825); assay: Activity at adrenergic Alpha-2C receptor expressed in rat-mouse hybrid […] cell by adenylyl cyclase assay; format: functional, cell-based
T7 sequence (P18825 whole entry): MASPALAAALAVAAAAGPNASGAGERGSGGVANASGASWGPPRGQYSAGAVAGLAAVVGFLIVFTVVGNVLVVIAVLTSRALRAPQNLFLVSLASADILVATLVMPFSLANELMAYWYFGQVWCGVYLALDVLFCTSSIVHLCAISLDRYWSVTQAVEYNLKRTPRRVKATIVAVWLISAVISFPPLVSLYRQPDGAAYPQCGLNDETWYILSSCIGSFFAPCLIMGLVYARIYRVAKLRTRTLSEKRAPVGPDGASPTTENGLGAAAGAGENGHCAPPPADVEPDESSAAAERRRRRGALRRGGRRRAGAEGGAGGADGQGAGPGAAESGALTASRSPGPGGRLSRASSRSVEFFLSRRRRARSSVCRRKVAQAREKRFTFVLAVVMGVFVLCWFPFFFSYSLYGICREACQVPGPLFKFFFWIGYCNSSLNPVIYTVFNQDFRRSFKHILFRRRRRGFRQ

[20] = biological target: T5, Alpha-2A adrenergic receptor; assay: Activity at adrenergic alpha2A receptor expressed in human clonic adenocarcinoma HT29 cell by […]; format: functional, cell-based, HT-29
[21] = Half life in phosphate buffer at pH 7.4 in 45 degC; format: ADME

T1 sequence (P14842 whole entry): as the sequence (P14842 whole entry) above

SMILES | logD [1] | pIC50 [2] | Emax [3] | pEC50 [4] | Emax [5] | Papp B→A (MDR1 (P-gp) [6]) | Papp A→B (MDR1 (P-gp) [7]) | pKi [8] | pEC50 [9] | pKi [10] | pEC50 [11] | pKi [12] | T1/2 [13] | further results
COc1ccc2[nH]cc(CCN(C)C)c2c1 [MEBUFOTENIN] | 3.3 | 8.02 | 70% | 6.34 | 89% | 14.4 ×10⁻⁶ cm/s | 16.1 ×10⁻⁶ cm/s | – | – | – | – | – | – | –
Cc1c(O)ccc2cnn(C[C@H](C)N)c12 | 1.28 | 9.13 | 89% | 7.09 | 91% | 3.12 ×10⁻⁶ cm/s | 2.49 ×10⁻⁶ cm/s | 8.74 | 8.05 | 8.44 | 8.14 | 8.06 | 0.73 yr | –
C[C@H](N)Cn1ncc2ccc(O)c(Cl)c21 | 1.09 | 9.27 | 87% | 7.22 | 104% | 4.94 ×10⁻⁶ cm/s | 1.65 ×10⁻⁶ cm/s | 7.92 | 8.23 | 8.92 | 8.31 | 8.42 | 4 yr | efflux ratio (MDR1 (P-gp) [14]): 3
COc1ccc2cnn(C[C@H](C)N)c2c1 | 2.08 | 8.72 | 90% | 7.27 | 103% | 19.5 ×10⁻⁶ cm/s | 14.1 ×10⁻⁶ cm/s | 7.80 | 8.38 | 8.82 | 8.17 | 8.12 | – | –
C[C@H](N)Cn1ncc2ccc(O)c(I)c21 | 3 | 8.77 | 73% | 6.69 | – | 3.46 ×10⁻⁶ cm/s | 1.22 ×10⁻⁶ cm/s | 7.68 | – | 8.32 | – | 8.22 | – | –
C[C@H](N)Cn1ncc2ccc(O)c(F)c21 | 0.394 | 9.14 | 80% | 7.24 | 100% | 1.66 ×10⁻⁶ cm/s | 1.11 ×10⁻⁶ cm/s | 8.24 | 8.21 | 9.00 | 8.26 | 8.77 | 1.4 yr | efflux ratio (MDR1 (P-gp) [14]): 1.5
NCCn1ncc2ccc(O)cc21 | 0.254 | 9.11 | 75% | 7.13 | 104% | 0.6 ×10⁻⁶ cm/s | 0.64 ×10⁻⁶ cm/s | 7.70 | 8.07 | 8.02 | 8.35 | 7.82 | 3.7 yr | –
C[C@@H](N)Cn1ncc2ccc(O)cc21 | – | 8.68 | 61% | 6.63 | 97% | – | – | 6.98 | 7.07 | 7.47 | 7.06 | 7.46 | – | pEC50 [15]: < 5.00; pEC50 [16]: 5.33; pEC50 [17]: < 5.00; pEC50 [18]: 5.54; pEC50 [19]: 5.25; pEC50 [20]: 5.70
CC(N)Cc1c[nH]c2ccc(O)cc12 (configuration not stated) | – | – | 96% | – | 100% | – | – | – | – | – | – | – | – | T1/2 [21]: 0.071 yr
COc1ccc2[nH]cc(CC(C)N)c2c1 (configuration not stated) | – | 8.70 | 96% | 7.32 | 103% | – | – | – | 8.57 | – | 8.51 | – | – | –
NCCc1c[nH]c2ccc(O)cc12 [SEROTONIN] | – | – | 99% | – | 94% | – | – | – | – | – | – | – | – | T1/2 [21]: 0.03 yr
COc1cc(C[C@@H](C)N)c(OC)cc1I | 2.72 | 9.68 | 35% | 7.70 | – | 23.2 ×10⁻⁶ cm/s | 12.6 ×10⁻⁶ cm/s | – | 7.92 | – | 7.52 | – | – | –
